The values that follow come from publication PMC3038857, “Using Nuclear Receptor Activity to Stratify Hepatocarcinogens” (PLoS ONE, 2011).

The test system of series [1] is Mouse Liver. The following applies: mouse chronic study, liver, coded 6 / Inf, ref ToxRefDB, cited from earlier work.
For series [2], the system named is Mouse Liver. The note with it: mouse chronic study, liver, coded 6 / Inf, ref ToxRefDB, cited from earlier work. This is another data set of the same source.
In series [3] the test system is Mouse Liver. The note with it: mouse chronic study, liver, coded 6 / Inf, ref ToxRefDB, cited from earlier work. This is another data set of the same source.
For series [4], the target named is T1, PPARG (peroxisome proliferator-activated receptor gamma) (Homo sapiens, UniProt P37231).
T1 construct: expressed in transfected cells; host or cells: HepG2
T1 sequence (P37231 1-505): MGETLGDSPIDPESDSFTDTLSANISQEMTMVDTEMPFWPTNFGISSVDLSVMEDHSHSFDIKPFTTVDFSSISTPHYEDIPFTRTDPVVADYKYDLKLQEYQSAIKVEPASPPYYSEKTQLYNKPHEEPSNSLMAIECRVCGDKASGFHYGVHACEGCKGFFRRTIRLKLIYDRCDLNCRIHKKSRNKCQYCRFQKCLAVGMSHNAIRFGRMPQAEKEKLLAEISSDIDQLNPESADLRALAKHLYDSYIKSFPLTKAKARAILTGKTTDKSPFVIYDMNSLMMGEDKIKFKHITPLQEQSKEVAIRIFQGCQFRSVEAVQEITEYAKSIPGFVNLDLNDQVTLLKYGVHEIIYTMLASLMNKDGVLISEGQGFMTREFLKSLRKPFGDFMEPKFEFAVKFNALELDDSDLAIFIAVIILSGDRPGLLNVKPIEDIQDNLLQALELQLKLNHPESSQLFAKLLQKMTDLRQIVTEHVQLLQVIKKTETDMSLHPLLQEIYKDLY
As to the kind of experiment: ATG_PPARg_TRANS: Factorial reporter gene assay (HepG2). The class given is cell-based. The following applies: HepG2. The method, then:
(§1) A multiple reporter transcription unit (MRTU) library consisting of 48 transcription factor binding sites was transfected into the HepG2 human liver hepatoma cell line. In addition to the cis-acting reporter genes (CIS), a modification of the approach was used to generate a trans-system (TRANS) with a mammalian one-hybrid assay consisting of an additional 25 MRTU library reporting the activity of nuclear receptor super-family members. […] These assays were performed by Attagene Inc. (Morrisville NC) under contract to EPA.
(§2) In addition to the cis-acting reporter genes (CIS), a modification of the approach was used to generate a trans-system (TRANS) with a mammalian one-hybrid assay consisting of an additional 25 MRTU library reporting the activity of nuclear receptor super-family members. […] Chemicals were then tested in the CIS and TRANS assays at seven concentrations starting at the MTC and followed by three-fold serial dilutions. These assays were performed by Attagene Inc. (Morrisville NC) under contract to EPA. Detailed description of the methods, data and analysis methods for this dataset will be presented in a separate publication.
Background: In a reporter assay the amount or activity of a reporter protein is the signal.

Series [5] addresses T2, PXR (NR1I2) (Homo sapiens, UniProt O75469).
T2 sequence (O75469 1-434): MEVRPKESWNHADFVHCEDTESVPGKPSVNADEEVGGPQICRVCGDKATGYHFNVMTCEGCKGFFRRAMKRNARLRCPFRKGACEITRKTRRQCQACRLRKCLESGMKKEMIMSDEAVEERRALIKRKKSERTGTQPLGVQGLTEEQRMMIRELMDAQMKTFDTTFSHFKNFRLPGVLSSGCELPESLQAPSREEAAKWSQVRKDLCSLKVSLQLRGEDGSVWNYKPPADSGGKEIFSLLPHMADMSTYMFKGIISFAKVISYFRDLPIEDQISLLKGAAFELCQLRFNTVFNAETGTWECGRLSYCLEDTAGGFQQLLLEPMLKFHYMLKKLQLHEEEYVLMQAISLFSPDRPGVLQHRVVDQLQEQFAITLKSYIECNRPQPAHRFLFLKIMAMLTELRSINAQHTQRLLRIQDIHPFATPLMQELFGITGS
Description: ATG_PXR_TRANS: Factorial reporter gene assay (HepG2). The class given is cell-based. Further details: endogenous in cells; host or cells: HepG2. The note with it: HepG2. The method, then:
as §1, §2

Series [6] addresses T2, PXR (NR1I2). Description: ATG_PXRE_CIS: Factorial reporter gene assay (HepG2). The class given is cell-based. More on the design: endogenous in cells; host or cells: HepG2. The following applies: HepG2. As to the method:
as §1, §2

Series [7] concerns CYP1A1. Description: CLZD_CYP1A1: Change in expression of CYP1A1 (primary human hepatocytes). The series is classed as cell-based. The note with it: 24 hr. The method, then: (§3) This is a collection of multiplexed gene expression assays focused on Phase I and II xenobiotic metabolizing enzymes and transporters. Human primary cell cultures were treated with chemicals at 5 concentrations (0.004-40 [drawing 42] M) for 6, 24 and 48 hr. Concentration- and time-response profiles of chemicals were measured by the expression of key nuclear receptor target genes, activities of CYP1A enzymes (EROD), and cell morphology. Fourteen gene targets were monitored by quantitative nuclease protection assay including: six representative cytochrome P-450 genes, four hepatic transporters, three Phase II conjugating enzymes, and one endogenous metabolism gene involved in cholesterol synthesis. The target genes associated with nuclear receptor pathways are as follows: [drawing 43] and [drawing 44] with [drawing 45]; [drawing 46] , [drawing 47] , [drawing 48] , [drawing 49] , [drawing 50] and [drawing 51] with [drawing 52]; [drawing 53] , [drawing 54] , [drawing 55] and [drawing 56] with [drawing 57]; [drawing 58] with [drawing 59]; and [drawing 60] with [drawing 61] . Assays were run in primary human hepatocyte cultures by CellzDirect Invitrogen Inc. (Durham, NC), in collaboration with EPA.
(§4) Multiplexed Gene Expression in Human Primary Hepatocytes: This is a collection of multiplexed gene expression assays focused on Phase I and II metabolic enzymes and transporters. […] Fourteen gene targets were monitored by quantitative nuclease protection assay: six representative cytochrome P450 genes, four hepatic transporters, three Phase II conjugating enzymes, and one endogenous metabolism gene involved in cholesterol synthesis. Cells were exposed at 5 concentrations (0.004-40 µM) for 6, 24 or 48 hr. Gene targets are sentinels for five nuclear receptor signaling pathways: AhR, CAR, PXR, FXR, and PPARα. All gene are associated with nuclear receptor pathways: CYP1A1 and CYP1A2 with AHR; ABCB1, ABCG2, CYP2B6, CYP2C9, CYP2C19 and UGT1A1 with CAR; CYP3A4, GSTA2, SLCO1B1 and SULT2A1 with PXR; HMGCS2 with PPARA; and ABCB11 with FXR. […] Detailed description of the methods, data and analysis methods for this dataset will be presented in a separate publication.

Series [8] deals with Rat Liver. The following applies: rat, chronic study, ref ToxRefDB; cited from earlier work.
Series [9] has as its system Rat Liver. The following applies: rat, chronic study, ref ToxRefDB; cited from earlier work. This is another data set of the same source.
The test system of series [10] is Rat Liver. The following applies: rat, chronic study, ref ToxRefDB; cited from earlier work. This is another data set of the same source.
For series [11], the system named is CYP2B6. Description: CLZD_CYP2B6: Change in expression of CYP2B6 (primary human hepatocytes). The series is classed as cell-based. The following applies: 24 hr. The method, then:
as §3, §4

For series [12], the target named is T2, PXR (NR1I2). As to the kind of experiment: NVS_NR_hPXR: Human PXR Fluormone PXR (SXR) green (cell-free HTS). The series is classed as binding. An excerpt: These are a collection of biochemical assays measuring binding constants and enzyme inhibition values. Chemicals were initially screened at a single concentration in duplicate wells at a concentration of 10 [drawing 63] M for cytochrome P-450 assays and 25 [drawing 64] M for all others. […] These assays were run by Caliper Life Sciences (Hanover, MD) under contract to EPA. Short assay descriptions are available at: http://www.caliperls.com/products/contract-research/in-vitro/.
Cell-free HTS Assays: A collection of biochemical assays measuring binding constants and enzyme inhibition values. […] These assays were run by Caliper Life Sciences (Hanover, MD) under contract to EPA. Short assay descriptions are available at http://www.caliperls.com/products/contract-research/in-vitro/. Values for all endpoints were imported into GeneData Screener (Basel, Switzerland) and normalised to solvent controls from the same plate as the tested compounds and expressed as percent of neutral control. Concentration-response curves were fit in GeneData Screener (Basel, Switzerland) Condeseo module using the Hill equation and AC50 values were determined. […] Detailed description of the methods, data and analysis methods for this dataset are described in a separate publication.

[13] abbreviates: neoplastic lesion, code not explained in the table.
[14] abbreviates: preneoplastic lesion, code not explained in the table.
Setting [15] is: any lesion, code not explained in the table.

Like-named read-outs stand apart in the source and are kept apart here.

For `Oc1ccccc1-c1ccccc1` [Dataset S3 row 5], the CHR_Mouse_Liver_3_NeoplasticLesion in series [1] (setting [13]) is 6. For the same compound, the CHR_Mouse_Liver_2_PreneoplasticLesion in series [2] (setting [14]) is 6. Further, in series [3] (setting [15]), the CHR_Mouse_Liver_1_AnyLesion is on record as 6.
For the compound `CCCCN(CC)c1c([N+](=O)[O-])cc(C(F)(F)F)cc1[N+](=O)[O-]` [Dataset S3 row 26], the CHR_Mouse_Liver_3_NeoplasticLesion in [1] (setting [13]) was 6. Moreover, the CHR_Mouse_Liver_2_PreneoplasticLesion in [2] (setting [14]) is reported as 6. The CHR_Mouse_Liver_1_AnyLesion in [3] (setting [15]) is recorded as 6.
Consider `CCCCNC(=O)n1c(NC(=O)OC)nc2ccccc21` [Dataset S3 row 27], for which the CHR_Mouse_Liver_3_NeoplasticLesion in series [1] (setting [13]) is given as 6. For the same compound, in [2] (setting [14]), the CHR_Mouse_Liver_2_PreneoplasticLesion is reported as 6. For the same compound, the CHR_Mouse_Liver_1_AnyLesion in series [3] (setting [15]) is on record as 6.
As to `COC(=O)NC(=S)Nc1ccccc1NC(=S)NC(=O)OC` [chemical 301], the CHR_Mouse_Liver_3_NeoplasticLesion in [1] (code not explained in table) is listed as 6. Further, the CHR_Mouse_Liver_2_PreneoplasticLesion in [2] (code not explained in table) was 6. The CHR_Mouse_Liver_1_AnyLesion in series [3] (code not explained in table) is listed as 6.
As for `CCC(CC)Nc1c([N+](=O)[O-])cc(C)c(C)c1[N+](=O)[O-]` [r238], in series [4], the ATG_PPARg_TRANS amounted to 4.167. In addition, in series [5], the ATG_PXR_TRANS is reported as 4.432. The ATG_PXRE_CIS in [6] is 4.959. In [7], this compound had a CLZD_CYP1A1_24 of 5.24. For the same compound, the CHR_Rat_Liver_1_AnyLesion in series [8] is given as 6. For the same compound, the CHR_Rat_Liver_2_PreneoplasticLesion in [9] is listed as 6. Further, the CHR_Rat_Liver_3_NeoplasticLesion in [10] is given as 0. The compound further showed a CLZD_CYP2B6_24 in series [11] of 4.988. The NVS_NR_hPXR in series [12] was 5.143.
